# According to patent publication US10736856B2, “Use of xibornol as active agent in the treatment of viral infections” (priority 2016, dated 2020):
# Entries after “also recorded” stand apart in the source; their conditions may differ.
# How the values were obtained:
# Test in all cases: Xibornol virucidal efficacy test (UNI EN 14476 adapted), residual viral titer by Karber micromethod
# Conditions in all cases: for Average viral titre after 15 minutes contact / Logarithmic reduction: 15 minutes contact
# Human Adenovirus 5 = assay type: cell-based
# Method: (§1) The experimentation was conducted by using the following strains from ATCC: • VR-5 Human Adenovirus 5; Strain: Adenoid 75, • VR-286 Picornaviridae, Rhinovirus, Human Rhinovirus A, • VR-740 Human Coronavirus.
# (§2) The cell lines used for the isolation of the target viruses were: • ATCC CCL-2 HeLa—Cervical Adenocarcinoma—Human (Homo sapiens), briefly ‘HeLa’, for the study of Human Adenovirus 5 and Human Rhinovirus, and • ATCC CCL-171 MRC-5-Lung Fibroblast-Human (Homo Sapiens), briefly ‘MRC-5’ for the study of Human Coronavirus.
# (§3) The tests to assess the toxicity of xibornol were performed as per UNI EN 14476 protocol, which refers to the “virucidal activity of chemical disinfectants or antiseptics for tools, surfaces or hands forming a physically stable homogeneous mixture when diluted with hard water or water”, suitably adapted, also considering that xibornol is soluble in alcohol (ethanol) that is already well known to have toxic effects for cell cultures.
# (§4) Therefore, it was decided to use preparations in which xibornol was diluted with different solvents, in order also to be able to test both the solution and the suspension condition. After several tests, a reliable method was set up, by using Labrasol®, namely caprylocaproyl polyoxyl-8 glyceride, as solvent and formulating xibornol in solution.
# (§5) For each of the 3 viruses, 3 replicates were performed with 10 mL mixtures consisting of: • 1 mL Labrasol® (“clean” tests) or 1 mL of fetal bovine serum (“dirt” tests); • 8 mL xibornol for each dilution (8%, 3%, 0.5%) at the non-toxic concentration for the cell cultures: 10^−3, 10^−2 and 10^−1 respectively, and corresponding to 0.008 g/100 mL, 0.030 g/100 mL and […]. Dilutions made in Labrasol®; • 1 mL of virus with known titer.
# (§6) The tests carried out in “dirt” situations, specified by the standard protocol, were intended to create a more “difficult” environment for the performance of the virucidal activity by xibornol, hindered in its activity by the presence of further polluting components, as actually happens in the application environment of the active ingredient, allowing recreating and simulating as closely as possible the conditions of use.
# (§7) For tests performed in “dirt” condition, the erythrocytes were not mixed with the bovine fetal serum, as indicated by the European standard, because of the interfering effect they have towards the cell lines used in the tests, which would have led to difficulties in interpreting the results.
# (§8) Moreover, for each replicate, a negative control was used, consisting of: • 1 mL virus; • 9 mL Labrasol® (“clean” tests) or 8 mL Labrasol®+1 mL fetal bovine serum (“dirt” tests).
# (§9) Contact time: 15 minutes.
# (§10) After this interval, the mixtures were analysed to assess the residual viral titer by titration, Karber micromethod.
# (§11) The data obtained were analysed with the Excel program for the evaluation of averages and total logarithmic standard deviations.
# Human Rhinovirus = assay type: cell-based, Human Rhinovirus A (ATCC VR-286), titrated on HeLa
# Method: as §1, §2, §3, §4, §5, §6, §7, §8, §9, §10, §11
# Human Coronavirus = assay type: cell-based, Human Coronavirus (ATCC VR-740), titrated on MRC-5
# Method: as §1, §2, §3, §4, §5, §6, §7, §8, §9, §10, §11
# [1] = after 15 minutes of contact, all concentrations tested (0.008, 0.030, 0.05 g/100 mL)
# [2] = extrapolated from trend curve to xibornol 3 g per 100 mL of solution
# [3] = “clean” test, working concentration 0.008 g/100 mL (8% solution, dilution 10^−3)
# [4] = “clean” test, working concentration 0.03 g/100 mL (3% solution, dilution 10^−2)
# [5] = “clean” test, working concentration 0.05 g/100 mL (0.5% solution, dilution 10^−1)
# [6] = “dirt” test (fetal bovine serum), working concentration 0.008 g/100 mL (8% solution, dilution 10^−3)
# [7] = “dirt” test (fetal bovine serum), working concentration 0.03 g/100 mL (3% solution, dilution 10^−2)
# [8] = “dirt” test (fetal bovine serum), working concentration 0.05 g/100 mL (0.5% solution, dilution 10^−1)
compound,measurement,setting,value
"Cc1cc(O)c(C2CC3CCC2(C)C3(C)C)cc1C (centres unmarked) [xibornol, 4,5-dimethyl-2-[1,7,7-trimethylbicyclo[2.2.1]heptan-2-yl]phenol]",killing extent (reduction of viral load),Human Adenovirus 5; [1],greater than 2 orders of magnitude
same,"final average titer after treatment, extrapolated",Human Adenovirus 5; [2],very close to zero
same,"reduction of the viral load titer (expressed as logarithm), extrapolated",Human Adenovirus 5; [2],at least of two orders of magnitude; also recorded: almost total reduction
same,Average viral titre after 15 minutes contact,Human Adenovirus 5; [3],2 ± 0.8 Log DCP50/mL
same,Logarithmic reduction,Human Adenovirus 5; [3],2.4
same,Average viral titre after 15 minutes contact,Human Adenovirus 5; [4],1.3 ± 1 Log DCP50/mL
same,Logarithmic reduction,Human Adenovirus 5; [4],3.1
same,Average viral titre after 15 minutes contact,Human Adenovirus 5; [5],1.1 ± 0.1 Log DCP50/mL
same,Logarithmic reduction,Human Adenovirus 5; [5],3.3
same,Average viral titre after 15 minutes contact,Human Adenovirus 5; [6],1.1 ± 0.6 Log DCP50/mL
same,Logarithmic reduction,Human Adenovirus 5; [6],2
same,Average viral titre after 15 minutes contact,Human Adenovirus 5; [7],1.2 ± 0.6 Log DCP50/mL
same,Logarithmic reduction,Human Adenovirus 5; [7],1.9
same,Average viral titre after 15 minutes contact,Human Adenovirus 5; [8],0.8 ± 0.5 Log DCP50/mL
same,Logarithmic reduction,Human Adenovirus 5; [8],2.3
same,"reduction of the viral titer, average",Human Adenovirus 5; “dirt” tests,more than two orders of magnitude
same,killing extent (reduction of viral load),Human Rhinovirus; [1],greater than 2 orders of magnitude
same,"final average titer after treatment, extrapolated",Human Rhinovirus; [2],very close to zero
same,"reduction of the viral load titer (expressed as logarithm), extrapolated",Human Rhinovirus; [2],at least of two orders of magnitude; also recorded: almost total reduction
same,Average viral titre after 15 minutes contact,Human Rhinovirus; [3],2 ± 0.1 Log DCP50/mL
same,Logarithmic reduction,Human Rhinovirus; [3],2.2
same,Average viral titre after 15 minutes contact,Human Rhinovirus; [4],1.3 ± 0.5 Log DCP50/mL
same,Logarithmic reduction,Human Rhinovirus; [4],2.9
same,Average viral titre after 15 minutes contact,Human Rhinovirus; [5],1.2 ± 0.4 Log DCP50/mL
same,Logarithmic reduction,Human Rhinovirus; [5],3
same,Average viral titre after 15 minutes contact,Human Rhinovirus; [6],1 ± 0.1 Log DCP50/mL
same,Logarithmic reduction,Human Rhinovirus; [6],2.8
same,Average viral titre after 15 minutes contact,Human Rhinovirus; [7],0.7 ± 0.1 Log DCP50/mL
same,Logarithmic reduction,Human Rhinovirus; [7],3.1
same,Average viral titre after 15 minutes contact,Human Rhinovirus; [8],0.8 ± 0.1 Log DCP50/mL
same,Logarithmic reduction,Human Rhinovirus; [8],3
same,"reduction of the viral titer, average",Human Rhinovirus; “dirt” tests,more than two orders of magnitude
same,"reduction of the viral titer, highest reached",Human Rhinovirus; “dirt” tests,≥ 3 orders of magnitude
same,killing extent (reduction of viral load),Human Coronavirus; [1],greater than 2 orders of magnitude
same,killing peak (reduction of viral load),"Human Coronavirus; after 15 minutes of contact, highest value reached",3.8 orders of magnitude
same,"final average titer after treatment, extrapolated",Human Coronavirus; [2],very close to zero
same,"reduction of the viral load titer (expressed as logarithm), extrapolated",Human Coronavirus; [2],at least of two orders of magnitude; also recorded: almost total reduction
same,Average viral titre after 15 minutes contact,Human Coronavirus; [3],1.8 ± 0.7 Log DCP50/mL
same,Logarithmic reduction,Human Coronavirus; [3],3.4
same,Average viral titre after 15 minutes contact,Human Coronavirus; [4],1.4 ± 0 Log DCP50/mL
same,Logarithmic reduction,Human Coronavirus; [4],3.8
same,Average viral titre after 15 minutes contact,Human Coronavirus; [5],1.6 ± 0.3 Log DCP50/mL
same,Logarithmic reduction,Human Coronavirus; [5],3.6
same,Average viral titre after 15 minutes contact,Human Coronavirus; [6],1.7 ± 0.7 Log DCP50/mL
same,Logarithmic reduction,Human Coronavirus; [6],2.3
same,Average viral titre after 15 minutes contact,Human Coronavirus; [7],1.5 ± 0.6 Log DCP50/mL
same,Logarithmic reduction,Human Coronavirus; [7],2.6
same,Average viral titre after 15 minutes contact,Human Coronavirus; [8],1.6 ± 0.4 Log DCP50/mL
same,Logarithmic reduction,Human Coronavirus; [8],2.5
same,"reduction of the viral titer, average",Human Coronavirus; “dirt” tests,more than two orders of magnitude
